According to patent US11046699B2, “Pyrazolo-pyrimidin-amino-cycloalkyl compounds and their therapeutic uses” (RAPT THERAPEUTICS, INC., priority 2018, dated 2021):
Like-named read-outs stand apart in the source and are kept apart here.

Molecular target: GCN2 (Homo sapiens, UniProt Q9P2K8)
Assay: GCN2 enzymatic endpoint assay: phosphorylation of GFP-eIF2α measured by TR-FRET (Lanthascreen)
Type: biochemical
Procedure, shortened: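 Read-out is the TR-FRET ratio of acceptor signal at 520 nm to terbium donor at 495 nm, rising with antibody binding to phosphorylated GFP-eIF2α. Endpoint format: 2 μM ATP, 80 nM substrate, 90 minutes at room temperature, EDTA stop.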

[1] = tested as described in Example 77, compound and/or hydrochloride, dihydrochloride or trifluoroacetic acid salt, read-out: IC 50 Activity
[2] = GCN2 biochemical IC50, 4 nM GCN2, 2 μM ATP, 80 nM GFP-eIF2α, 90 min RT, read-out: GCN2 activity

GCN2, sequence (Q9P2K8 whole entry): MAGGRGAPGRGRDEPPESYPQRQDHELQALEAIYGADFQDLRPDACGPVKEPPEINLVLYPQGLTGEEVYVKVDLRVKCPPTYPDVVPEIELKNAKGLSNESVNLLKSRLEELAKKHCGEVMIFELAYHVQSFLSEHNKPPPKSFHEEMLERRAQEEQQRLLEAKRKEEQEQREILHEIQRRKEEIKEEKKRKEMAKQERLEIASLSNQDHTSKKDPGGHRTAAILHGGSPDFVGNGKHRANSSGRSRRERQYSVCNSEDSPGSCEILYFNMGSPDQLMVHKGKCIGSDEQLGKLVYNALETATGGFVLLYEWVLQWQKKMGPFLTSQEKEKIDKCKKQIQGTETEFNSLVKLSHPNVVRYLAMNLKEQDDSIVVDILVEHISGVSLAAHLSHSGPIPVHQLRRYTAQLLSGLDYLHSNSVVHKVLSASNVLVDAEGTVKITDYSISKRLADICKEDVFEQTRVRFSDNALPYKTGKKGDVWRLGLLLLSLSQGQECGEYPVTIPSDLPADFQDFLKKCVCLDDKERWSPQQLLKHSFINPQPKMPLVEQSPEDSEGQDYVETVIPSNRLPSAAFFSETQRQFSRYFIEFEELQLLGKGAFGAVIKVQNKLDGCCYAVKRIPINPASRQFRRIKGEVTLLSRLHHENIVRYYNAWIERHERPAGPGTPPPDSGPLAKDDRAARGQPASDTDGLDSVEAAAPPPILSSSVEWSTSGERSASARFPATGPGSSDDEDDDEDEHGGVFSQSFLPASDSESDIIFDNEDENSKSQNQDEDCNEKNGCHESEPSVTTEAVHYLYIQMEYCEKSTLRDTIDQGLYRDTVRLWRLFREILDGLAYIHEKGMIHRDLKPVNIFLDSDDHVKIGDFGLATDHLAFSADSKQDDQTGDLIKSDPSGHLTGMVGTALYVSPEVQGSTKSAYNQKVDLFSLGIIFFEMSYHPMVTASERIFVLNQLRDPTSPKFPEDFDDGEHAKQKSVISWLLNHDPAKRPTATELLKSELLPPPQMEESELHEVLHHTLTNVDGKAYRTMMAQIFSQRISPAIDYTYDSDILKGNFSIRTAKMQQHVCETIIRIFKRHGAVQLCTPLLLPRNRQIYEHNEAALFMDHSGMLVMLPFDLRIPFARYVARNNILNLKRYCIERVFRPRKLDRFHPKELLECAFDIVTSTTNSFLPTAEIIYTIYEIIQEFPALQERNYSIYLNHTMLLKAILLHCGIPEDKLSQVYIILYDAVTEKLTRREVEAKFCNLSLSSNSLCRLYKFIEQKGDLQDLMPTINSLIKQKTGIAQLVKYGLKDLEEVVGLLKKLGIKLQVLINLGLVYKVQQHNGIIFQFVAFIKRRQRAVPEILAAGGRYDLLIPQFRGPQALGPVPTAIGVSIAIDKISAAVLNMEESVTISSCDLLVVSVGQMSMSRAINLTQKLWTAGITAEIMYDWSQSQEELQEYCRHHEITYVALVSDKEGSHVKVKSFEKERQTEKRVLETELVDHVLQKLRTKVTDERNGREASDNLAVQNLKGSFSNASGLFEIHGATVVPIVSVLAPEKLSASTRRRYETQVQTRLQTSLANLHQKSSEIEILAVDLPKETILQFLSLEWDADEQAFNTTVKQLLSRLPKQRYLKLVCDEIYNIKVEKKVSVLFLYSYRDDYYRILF

| Structure (SMILES) | IC50 [1] [nM] | IC50 [2] [nM] |
| --- | --- | --- |
| CNC(=O)[C@H]1C[C@H](Nc2ncc3c(Br)nn(-c4cc(Cl)cc(CO)c4)c3n2)CO1 [(2R,4S)-4-[[3-bromo-1-[3-chloro-5-(hydroxymethyl)phenyl]pyrazolo [3,4-d]pyrimidin-6-yl]amino]-N-methyl-tetrahydrofuran-2-carboxamide] | 25 to 200 |  |
| CNC(=O)[C@]1(COC)CC[C@@H](Nc2ncc3c(I)nn(-c4cc(F)c5ncccc5c4)c3n2)C1 [(1R,3R)-3-[[1-(8-fluoro-6-quinolyl)-3-iodo-pyrazolo[3,4-d]pyrimidin-6-yl]amino]-1-(methoxymethyl)-N-methyl-cyclopentane-carboxamide] | < 25 |  |
| CNC(=O)[C@]1(C)CC[C@@H](Nc2ncc3c(Br)nn(-c4cc(Br)cc(CO)c4)c3n2)C1 [(1R,3R)-3-[[3-bromo-1-[3-bromo-5-(hydroxymethyl)phenyl]pyrazolo [3,4-d]pyrimidin-6-yl]amino]-N,1-dimethyl-cyclopentanecarboxamide] | 25 to 200 |  |
| CNC(=O)[C@]1(C)CC[C@@H](Nc2ncc3c(Br)nn(-c4ccc(-c5ncco5)c([C@@H]5CCNC5)c4)c3n2)C1 [(1R,3R)-3-[[3-bromo-1-[4-oxazol-2-yl-3-[(3S)-pyrrolidin-3-yl]phenyl]pyrazolo[3,4-d]pyrimidin-6-yl]amino]-N,1-dimethyl-cyclopentanecarboxamide] | < 25 |  |
| Cc1nnc(-c2ccc(-n3nc(Br)c4cnc(N[C@@H]5CC[C@@](C)(C(=O)N6CCNCC6)C5)nc43)cc2)s1 [[(1R,3R)-3-[[3-bromo-1-[4-(5-methyl-1,3,4-thiadiazol-2-yl)phenyl]pyrazolo [3,4-d]pyrimidin-6-yl]amino]-1-methyl-cyclopentyl]-piperazin-1-yl-methanone] | 25 to 200 |  |
| CNC(=O)[C@]1(C)CC[C@@H](Nc2ncc3c(Br)nn(-c4cc(F)cc(C(N)=O)c4)c3n2)C1 [3-[3-bromo-6-[[(1R,3R)-3-methyl-3-(methylcarbamoyl)cyclopentyl]amino]pyrazolo[3,4-d]pyrimidin-1-yl]-5-fluoro-benzamide] | 25 to 200 |  |
| CNC(=O)[C@]1(C)CC[C@@H](Nc2ncc3c(Br)nn(-c4cc(F)c5ncccc5c4)c3n2)C1 [(1R,3R)-3-((3-bromo-1-(8-fluoroquinolin-6-yl)-1H-pyrazolo[3,4-d]pyrimidin-6-yl)amino)-N,1-dimethylcyclopentane-1-carboxamide] | 25 to 200 |  |
| CNC(=O)[C@]1(C)CC[C@@H](Nc2ncc3c(Br)nn(-c4cc(F)c5nc(C(C)(C)N)ccc5c4)c3n2)C1 [(1R,3R)-3-[[1-[2-(1-amino-1-methyl-ethyl)-8-fluoro-6-quinolyl]-3-bromo-pyrazolo[3,4-d]pyrimidin-6-yl]amino]-N,1-dimethyl-cyclopentanecarboxamide] | 25 to 200 |  |
| CNC(=O)[C@]1(C)CC[C@@H](Nc2ncc3c(Br)nn(-c4ccc5nnccc5c4)c3n2)C1 [Example 42, (1R,3R)-3-((3-bromo-1-(cinnolin-6-yl)-1H-pyrazolo[3,4-d]pyrimidin-6-yl)amino)-N,1-dimethylcyclopentane-1-carboxamide; 2,2,2-trifluoroacetic acid] |  | < 25 |
| Cc1nnc(-c2ccc(-n3nc(Br)c4cnc(N[C@@H]5CCC6(CC(=O)N(C)C6=O)C5)nc43)cc2CCC#N)s1 (stereo partly drawn) [3-[5-[3-bromo-6-[[(8R)-2-methyl-1,3-dioxo-2-azaspiro[4.4]nonan-8-yl]amino]pyrazolo[3,4-d]pyrimidin-1-yl]-2-(5-methyl-1,3,4-thiadiazol-2-yl)phenyl]propanenitrile; 2,2,2-trifluoroacetic acid] | 25 to 200 |  |
| CNC(=O)[C@]1(C)CC[C@@H](Nc2ncc3c(Br)nn(-c4cc(Cl)cc(CN)c4)c3n2)C1 [Example 52, (1R,3R)-3-((1-(3-(aminomethyl)-5-chlorophenyl)-3-bromo-1H-pyrazolo[3,4-d]pyrimidin-6-yl)amino)-N,1-dimethylcyclopentane-1-carboxamide; 2,2,2-trifluoroacetic acid] |  | 25 to 200 |
| CNC(=O)[C@]1(CC(F)F)CC[C@@H](Nc2ncc3c(Br)nn(-c4cc(C#N)cc(OCC5CNC5)c4)c3n2)C1 [(1R,3R)-3-[[1-[3-(azetidin-3-ylmethoxy)-5-cyano-phenyl]-3-bromo-pyrazolo[3,4-d]pyrimidin-6-yl]amino]-1-(2,2-difluoroethyl)-N-methyl-cyclopentanecarboxamide] | 25 to 200 |  |
| CNC(=O)[C@]1(C)CC[C@@H](Nc2ncc3c(Br)nn(-c4ccc(-c5nnc(C(C)N)s5)cc4)c3n2)C1 (stereo partly drawn) [(1R,3R)-3-[[1-[4-[5-(1-aminoethyl)-1,3,4-thiadiazol-2-yl]phenyl]-3-bromo-pyrazolo [3,4-d]pyrimidin-6-yl]amino]-N,1-dimethyl-cyclopentanecarboxamide] | 25 to 200 |  |
| COCCNC(=O)[C@]1(C)CC[C@@H](Nc2ncc3c(Br)nn(-c4ccc(-c5nnc(C)s5)cc4)c3n2)C1 [(1R,3R)-3-[[3-bromo-1-[4-(5-methyl-1,3,4-thiadiazol-2-yl)phenyl]pyrazolo [3,4-d]pyrimidin-6-yl]amino]-N-(2-methoxyethyl)-1-methyl-cyclopentane-carboxamide] | 25 to 200 |  |
| CNC(=O)[C@@]1(C)CC[C@@H](Nc2ncc3c(Br)nn(-c4ccc5ncc(CCO)cc5c4)c3n2)C1 [(1S,3R)-3-[[3-bromo-1-[3-(2-hydroxy-ethyl)-6-quinolyl]pyrazolo[3,4-d]pyrimidin-6-yl]amino]-N,1-dimethyl-cyclopentanecarboxamide] | < 25 |  |
| CNC(=O)[C@]1(C)CC[C@@H](Nc2ncc3c(Br)nn(-c4cc(CC#N)c5ncccc5c4)c3n2)C1 [(1R,3R)-3-[[3-bromo-1-[8-(cyanomethyl)-6-quinolyl]pyrazolo[3,4-d]pyrimidin-6-yl]amino]-N,1-dimethyl-cyclopentane-carboxamide] | < 25 |  |
| O=C(NC1CCS(=O)(=O)CC1)[C@@H]1CC[C@@H](Nc2ncc3c(Br)nn(-c4ccc5ncccc5c4)c3n2)C1 | 25 to 200 |  |
| CNC(=O)[C@]1(CC(F)F)CC[C@@H](Nc2ncc3c(Br)nn(-c4cc(CC(C)(C)O)c5ncccc5c4)c3n2)C1 [(1R,3R)-3-[[3-bromo-1-[8-(2-hydroxy-2-methyl-propyl)-6-quinolyl]pyrazolo[3,4-d]pyrimidin-6-yl]amino]-1-(2,2-difluoroethyl)-N-methyl-cyclopentanecarboxamide] | 25 to 200 |  |
| CNC(=O)[C@]1(C)CC[C@@H](Nc2ncc3c(Br)nn(-c4cc(Cl)cc(C(C)O)c4)c3n2)C1 (stereo partly drawn) | < 25 |  |
| CNC(=O)[C@]1(C(C)C)CC[C@@H](Nc2ncc3c(Br)nn(-c4cc([C@@H](C)N)c5nccnc5c4)c3n2)C1 | < 25 |  |
| CNC(=O)[C@]1(C)CC[C@@H](Nc2ncc3c(Br)nn(-c4cc(CCNS(C)(=O)=O)c5ncccc5c4)c3n2)C1 [(1R,3R)-3-[[3-bromo-1-[8-[2-(methane-sulfonamido)ethyl]-6-quinolyl]pyrazolo [3,4-d]pyrimidin-6-yl]amino]-N,1-dimethyl-cyclopentanecarboxamide] | 25 to 200 |  |
| O=C(NC1CCCN(CCF)C1)[C@@H]1CC[C@@H](Nc2ncc3c(Br)nn(-c4cc(F)c5ncccc5c4)c3n2)C1 (mixture of isomers) | 25 to 200 |  |
| CN1CCN(C(=O)[C@@H]2CC[C@@H](Nc3ncc4c(Br)nn(-c5ccc6ncccc6c5)c4n3)C2)CC1=O [4-((1R,3R)-3-((3-bromo-1-(quinolin-6-yl)-1H-pyrazolo[3,4-d]pyrimidin-6-yl)amino)cyclo-pentane-1-carbonyl)-1-methylpiperazin-2-one] | 25 to 200 |  |
| CNC(=O)[C@]1(C)CC[C@@H](Nc2ncc3c(Br)nn(-c4ccc5nc(N6CCC6)ncc5c4)c3n2)C1 [Example 73, (1R,3R)-3-((1-(2-(azetidin-1-yl)quinazolin-6-yl)-3-bromo-1H-pyrazolo[3,4-d]pyrimidin-6-yl)amino)-N,1-dimethylcyclopentane-1-carboxamide] |  | 25 to 200 |
| CNC(=O)[C@]1(C)CC[C@@H](Nc2ncc3c(Br)nn(-c4cc(CN5C(=O)CCC5=O)c5ncccc5c4)c3n2)C1 [(1R,3R)-3-[[3-bromo-1-[8-[(2,5-dioxo-pyrrolidin-1-yl)methyl]-6-quinolyl]pyrazolo[3,4-d]pyrimidin-6-yl]amino]-N,1-dimethyl-cyclopentanecarboxamide] | 25 to 200 |  |
| CNC(=O)[C@]1(C)CC[C@@H](Nc2ncc3c(Br)nn(-c4ccc(-c5ncco5)c(C(C)(C)C#N)c4)c3n2)C1 [(1R,3R)-3-[[3-bromo-1-[3-(1-cyano-1-methyl-ethyl)-4-oxazol-2-yl-phenyl]pyrazolo[3,4-d]pyrimidin-6-yl]amino]-N,1-dimethyl-cyclopentanecarboxamide] | 25 to 200 |  |
| CNC(=O)[C@]1(C)CC[C@@H](Nc2ncc3c(I)nn(-c4cc(F)c5ncccc5c4)c3n2)C1 [Example 31, (1R,3R)-3-((1-(8-fluoroquinolin-6-yl)-3-iodo-1H-pyrazolo[3,4-d]pyrimidin-6-yl)amino)-N,1-dimethylcyclopentane-1-carboxamide; 2,2,2-trifluoroacetic acid] |  | < 25 |
| CNC(=O)[C@]1(C)CC[C@@H](Nc2ncc3c(Br)nn(-c4ccc(-c5nnc(C(C)O)o5)cc4)c3n2)C1 (stereo partly drawn) [(1R,3R)-3-[[3-bromo-1-[4-[5-(1-hydroxy-ethyl)-1,3,4-oxadiazol-2-yl]phenyl]pyrazolo [3,4-d]pyrimidin-6-yl]amino]-N,1-dimethyl-cyclopentanecarboxamide] | 25 to 200 |  |
| Cc1nnc(-c2ccc(-n3nc(Br)c4cnc(N[C@@H]5CCC(C)(C(=O)N6CCNCC6)C5)nc43)cc2)o1 (stereo partly drawn) [[(3R)-3-[[3-bromo-1-[4-(5-methyl-1,3,4-oxadiazol-2-yl)phenyl]pyrazolo[3,4-d]pyrimidin-6-yl]amino]-1-methyl-cyclo-pentyl]-piperazin-1-yl-methanone] | 25 to 200 |  |
| CNC(=O)[C@]1(C)CC[C@@H](Nc2ncc3c(Br)nn(-c4ccc5c(c4)CN(C(=O)CO)CC5)c3n2)C1 [(1R,3R)-3-[[3-bromo-1-[2-(2-hydroxyacetyl)-3,4-dihydro-1H-isoquinolin-7-yl]pyrazolo [3,4-d]pyrimidin-6-yl]amino]-N,1-dimethyl-cyclopentanecarboxamide] | 25 to 200 |  |
